According to patent US7494767B2, “Assay for TSG101 as inhibitors of HIV production” (priority 2001, dated 2009):

Columns and labels:
[1] = system: HIV-1 particles; assay: Release of HIV-1 virus-like particles from transfected COS-1 cells (Western blot of particles, anti-CA); format: cell-based; details: 5 μM pa in the absence of pIND-h-Tsg101-FLAG
[2] = molecular target: T1, Tsg101 capture by Pr55^Gag (Homo sapiens, UniProt Q99816); assay: Immune capture competition assay: Tsg101 capture by Pr55^Gag on antibody-coated Protein A beads; format: binding, mouse or human; details: 5-fold molar excess of peptide
T1 construct: anneals at the position corresponding to amino acid 10 in the protein, and 3′ primer no; 30, which anneals to the C-terminus; made in house; host or cells: Tsg101: rabbit reticulocyte lysate (TNT T7 system); Pr55Gag: E. coli BL21-DE3
T1 sequence (Q99816 11-390): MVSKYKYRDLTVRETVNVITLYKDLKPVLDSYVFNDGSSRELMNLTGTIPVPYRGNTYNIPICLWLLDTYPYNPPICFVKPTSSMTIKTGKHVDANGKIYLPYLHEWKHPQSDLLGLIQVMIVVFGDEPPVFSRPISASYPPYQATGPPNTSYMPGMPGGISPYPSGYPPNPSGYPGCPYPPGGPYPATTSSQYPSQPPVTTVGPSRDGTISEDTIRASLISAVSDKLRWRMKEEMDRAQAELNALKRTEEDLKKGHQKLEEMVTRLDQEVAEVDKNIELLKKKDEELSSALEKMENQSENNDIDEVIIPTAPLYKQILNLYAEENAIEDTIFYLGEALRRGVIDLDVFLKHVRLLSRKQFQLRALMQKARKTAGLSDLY
Protocol: Protein detection. Proteins were separated by electrophoresis through a 12.5% SDS polyacrylamide gel. For detection of radiolabeled Tsg101 after electrophoresis, gels were fixed, incubated for 30 min in EN^3HANCE (DuPont NEN) autoradiography enhancer for gel fluorography and dried. Radioactive bands were visualized using imaging film (BioMax, Kodak). Gels with non-radioactive samples were transferred to nitrocellulose and analyzed by Western blotting. The following antibodies, as specified in the text, were used: anti-capsid (CA)1 and -CA2 (rabbit polyclonal antibodies raised against native and denatured forms of the CA protein, respectively; Ebbets-Reed, D., 1996, in Molecular Microbiology, State University of New York at Stony Brook, Stony Brook, N.Y., pp. 209; Ehrlich, L. S., Agresta, B. E. & Carter, C. A., 1992, J. Virol. 66,4874-4883); anti-CA3 (mouse monoclonal antibody, NEN-DuPont); anti-p6 (rabbit polyclonal against the C-terminal 16 amino acids, S. Campbell, NCI-FCRDC); anti-nucleocapsid (NC, goat polyclonal, A. Rein, NCI-FCRDC); anti-T7 (Novagen); anti-Tsg1011 (monoclonal, Santa Cruz); antiTsg1012 (rabbit polyclonal, obtained from S. Cohen, Stanford U.). […]
Tsg101 binds to Pr55^Gag in vitro. […] The protein was detected consistently as a doublet, perhaps due to internal initiation at Met10. The protein was also sometimes detected as a doublet in cytoplasmic extracts. […]

CC(C)CC[C@@H](O)[C@](C)(O)[C@H]1CC[C@@]2(O)C3=CC(=O)[C@@H]4C[C@@H](O)[C@@H](O)C[C@]4(C)[C@H]3CC[C@]12C [pa, reference compound]
inhibitory effect on virus release [1]: no inhibitory effect

LIAPP
reduction in Tsg101 capture by Pr55^Gag [2]: no change was detected
